Assay: Virosomal fusion activity before and after lyophilization (FRET assay)
Details: cationic lipid as integral virosomal membrane component; after lyophilization and reconstitution
Description: FRET Assay: For in vitro fusion measurements by fluorescence resonance energy transfer (FRET) (Struck et al., Biochemistry 20(14):4093-99, 1981; Loyter et al., Methods Biochem. Anal. 33:129-64, 1988), the following assay was developed: 0.75 mol % of Bodipy 530/550-DHPE and 0.25 mol % of N-Rh-DHPE were incorporated into liposomes consisting of PC/DPPG (70:30). Fluorescence measurements were carried out at discrete temperatures between 4° C. and 42° C. in 5 mM sodium phosphate buffer pH 7.5, 100 mM NaCl, in a final volume of 0.8 ml in 2.5 ml PMMA micro-cuvettes (VWR, Switzerland) under continuous stirring. […] The increase in fluorescence was recorded every 5 seconds at excitation and emission wavelengths of 538 nm and 558 nm, respectively, with an excitation slit of 2.5 nm and an emission slit of 15.0 nm. Measurements were carried out with an LS 55 Luminescence spectrometer (Perkin Elmer Instruments, USA) equipped with a thermostated cuvette holder and a magnetic stirring device. The maximal fluorescence at infinite probe dilution was reached after addition of Triton X-100 (0.5% v/v final concentration). For calibration of the fluorescence scale the initial residual fluorescence of the liposomes was set to zero and the fluorescence at infinite probe dilution to 100%.

| SMILES | preservation of virosomal fusion-activity |
| --- | --- |
| CC(C)CCC[C@@H](C)[C@H]1CC[C@H]2[C@@H]3CC=C4C[C@@H](OC(=O)NCCN(C)C)CC[C@]4(C)[C@H]3CC[C@]12C.Cl [DC-Chol, 3β[N-(N′,N′-dimethylammonioethane)-carbamoyl]cholesterol chloride] | superior properties in preserving virosomal fusion-activity |
| CC(C)CCC[C@@H](C)[C@H]1CC[C@H]2[C@@H]3CC=C4C[C@@H](OC(=O)NCC[N+](C)(C)C)CC[C@]4(C)[C@H]3CC[C@]12C.[Cl-] [TC-Chol, 3β[N-(N′,N′,N′-trimethylammonioethane)-carbamoyl]cholesterol chloride] | superior properties in preserving virosomal fusion-activity |
